The values that follow come from patent US7605280B2, “Anthraquinone and its derivatives” (Biostatus Limited, priority 1998, dated 2009).

Like-named read-outs stand apart in the source and are kept apart here.

For data set [1] the following is noted: previously published spectra, normalised; cited from earlier work.
Data set [2] is described as follows: Spectral analysis: absorbance and fluorescence spectra. The data set is classed as physicochemical. To be noted: DNA binding buffer, emission 530 nm. The procedure: Absorbance spectra were obtained using a Perkin-Elmer Lambda 16 UV spectrometer and a 10 μM solution of agent dissolved in dichloromethane and measured in a 1 cm path length quartz-silica cuvette. Fluorescence spectra for a 0.8 ml solution of 20 μM DRAQ5 in a 1 cm path length semi-micro quartz silica cuvette were determined by exciting at 647 nm wavelength or monitoring emission at 670 nm wavelength. Fluorescence measurements were made on a Perkin Elmer LS50 spectrofluorometer with slit widths set at 10 nm. The spectrofluorometer was equipped with a red-sensitive photomultiplier tube (PMT; type R928; Hamamatsu Photonics KK, Japan). Data were accumulated for four scans for each condition and exported into a spreadsheet program to correct values for the buffer control and to determine emission maxima. DNA-DRAQ5 fluorescence was measured by the addition of microlitre volumes of concentrated calf thymus DNA solutions to the cuvette with mixing. Both agent and DNA were prepared in DNA binding buffer (0.05 M sodium phosphate, pH 6.2, 0.05 M NaCl, 0.001 M EDTA; 3). The spectra shown were corrected for the buffer background and not for the spectral sensitivity of the PMT. Rhodamine 123 spectra were generated in DNA binding buffer using either 488/5 nm excitation or monitoring emission at 530/5 nm. […]

The subject of data set [3] is human B cell lymphoma cell line. Description: Dual laser flow cytometry of DRAQ5NO with Annexin V-FITC (Cytometer D). The data set is classed as cell-based. To be noted: 50 μM DRAQ5NO, 633 nm excitation, FL4-H. The text has this: The system was a FACS Vantage cell sorter (Becton Dickinson Inc., Cowley, UK) incorporating a Coherent Enterprise II laser simultaneously emitting at multiline UV (350-360 nm range) and 488 nm wavelengths with the beams made non-colinear using dichroic separators. Beam-combining optics were used to align the UV beam with that emitted by a Spectra Physics 127-35 helium-neon laser (max 35 mW output) emitting at 633 nm with a temporal separation of about 25 μsec from that of the primary 488 nm beam. Forward light scatter, 90° light scatter and fluorescence emissions were collected for 1×10^4 cells using the forward light scatter parameter as the master signal from the primary 488 nm beam, while side scatter was collected through a 488/10 nm bandpass filter. The analysis optics were: i) primary beam-originating signals analysed at FL1 (FITC filter; barrier filter of 530/30 nm) after transmission at SP610 and SP560 dichroics, or at FL2 (barrier filters of 585/42 nm or 575/26 nm) after transmission at SP610 and reflection at SP560 dichroics, or at FL3 (barrier filter of LP715 nm) after reflection at a SP610 dichroic; ii) delayed beam-originating signals analysed at FL4 (barrier filter of LP695 nm) or at FL5 (barrier filter of DF424/44 nm) after transmission or reflection at a LP640 dichroic respectively. Forward and 90° light scatter, were analysed to exclude any cell debris. […]
(In general: In flow cytometry, cells or beads pass a laser one at a time.)

For Texas Red, the Exλmax in data set [1] was 596 nm.
Take fluorescein isothiocyanate [FITC]: the Exλmax in data set [1] is on record as 490 nm.
rhodamine 123: in data set [2], the Exλmax was 511 nm.
As to `C[N+](C)([O-])CCNc1ccc(O)c2c1C(=O)c1c(O)ccc(NCC[N+](C)(C)[O-])c1C2=O` [DRAQ5N], in data set [3], the “level of DRAQ5NO staining in stage 1 populations (intact viable cells)” value is given as “low level” and the “level of DRAQ5NO staining in stage 3 cells (late stage apoptotic/dead cells)” value is “increased level”.
